Patent US20090082423A1, “SOLUBLE EPOXIDE HYDROLASE INHIBITORS” (Arete Therapeutics, Inc., priority 2007, published 2009)

Tests used:
[1] = system: soluble epoxide hydrolase (sEH); assay: Fluorescent assay for mouse and human soluble epoxide hydrolase (CMNPC substrate); format: biochemical; conditions: Conc 200 nM; recombinant sEH, CMNPC 5 μM, 30° C.; mouse or human enzyme not stated
Excerpt: Fluorescent Assay for Mouse and Human Soluble Epoxide Hydrolase
Recombinant mouse sEH (MsEH) and human sEH (HsEH) were produced in a baculovirus expression system as previously reported. Grant et al., J. Biol. Chem., 268:17628-17633 (1993); Beetham et al., Arch. Biochem. Biophys., 305:197-201 (1993). The expressed proteins were purified from cell lysate by affinity chromatography. Wixtrom et al., Anal. Biochem., 169:71-80 (1988). Protein concentration was quantified using the Pierce BCA assay using bovine serum albumin as the calibrating standard. The preparations were at least 97% pure as judged by SDS-PAGE and scanning densitometry. They contained no detectable esterase or glutathione transferase activity which can interfere with the assay. The assay was also evaluated with similar results in crude cell lysates or homogenate of tissues.
The IC50s for each inhibitor were according to the following procedure:
Cyano(2-methoxynaphthalen-6-yl)methyl (3-phenyloxiran-2-yl)methyl carbonate (CMNPC; Jones P. D. et. al.; Analytical Biochemistry 2005; 343: pp. 66-75)
Bis/Tris HCl 25 mM pH 7.0 containing 0.1 mg/mL of BSA (buffer A)
CMNPC at 0.25 mM in DMSO.
Mother solution of enzyme in buffer A (Mouse sEH at 6 μg/mL and Human sEH at 5 μg/mL).
Inhibitor dissolved in DMSO at the appropriate concentration.
In a black 96 well plate, fill all the wells with 150 μL of buffer A.
Add 2 μL of DMSO in well A2 and A3, and then add 2 μL of inhibitor solution in A1 and A4 through A12.
Add 150 μL of buffer A in row A, then mix several time and transfer 150 μL to row B. Repeat this operation up to row H. The 150 μL removed from row H go to the trash.
Add 20 μL of buffer A in column 1 and 2, then add 20 μL of enzyme solution to column 3 to 12.
Incubate the plate for 5 minutes in the plate reader at 30° C.
During incubation prepare the working solution of substrate by mixing 3.68 mL of buffer A (4×0.920 mL) with 266 μL (2×133 μL) of substrate solution).
At t=0, add 30 μL of working substrate solution with multi-channel pipette labeled “Briggs 303” and start the reading ([S]final: 5 μM).
Read with ex: 330 nm (20 nm) and em: 465 nm (20 nm) every 30 second for 10 minutes. The velocities are used to analyze and calculate the IC50s.

With CC1(C)CC(NC(=O)Nc2ccc(C(F)(F)F)cc2)CC(C)(C)C1=O [Compound 5, 1-(3,3,5,5-tetramethyl-4-oxocyclohexyl)-3-(4-(trifluoromethyl)phenyl)urea] the “% Inh (percent inhibition)” value [1] was 98% and the melting point was 152 to 153 °C.

With O=C(NC1CCS(=O)(=O)CC1)NC12CC3CC(CC(C3)C1)C2 [Compound 7, 1-adamantan-1-yl-3-(1,1-dioxo-tetrahydro-2H-thiopyran-4-yl)urea] the “% Inh (percent inhibition)” value [1] was 82% and the melting point was 244 to 246 °C.

For O=C(Nc1ccc(C(F)(F)F)cc1)NC1CCOCC1 [Compound 3, 1-(tetrahydro-2H-pyran-4-yl)-3-(4-(trifluoromethyl)phenyl)urea], the “% Inh (percent inhibition)” value [1] was 91% and the melting point was 196 to 198 °C.

For O=C(NCC1CCOCC1)Nc1ccc(C(F)(F)F)cc1 [Compound 2, 1-((tetrahydro-2H-pyran-4-yl)methyl)-3-(4-(trifluoromethyl)phenyl)urea], the “% Inh (percent inhibition)” value [1] was 70% and the melting point was 148 to 149 °C.

With O=C(NC1CCOCC1)NC12CC3CC(CC(C3)C1)C2 [Compound 8, 1-adamantan-1-yl-3-(tetrahydro-2H-pyran-4-yl)urea] the “% Inh (percent inhibition)” value [1] was 90% and the melting point was 239 to 242 °C.

For CC1(C)CC(NC(=O)NC23CC4CC(CC(C4)C2)C3)CC(C)(C)C1=O [Compound 6, 1-adamantan-1-yl-3-(3,3,5,5-tetramethyl-4-oxocyclohexyl)urea], the “% Inh (percent inhibition)” value [1] was 100% and the melting point was 234 to 238 °C.

In the case of O=C(NCC1CCOCC1)NC12CC3CC(CC(C3)C1)C2 [Compound 1, 1-adamantan-1-yl-3-((tetrahydro-2H-pyran-4-yl)methyl)urea], the “% Inh (percent inhibition)” value [1] is reported as 89% and the melting point is reported as 196 to 198 °C.

With O=C(Nc1ccc(C(F)(F)F)cc1)NC1CCS(=O)(=O)CC1 [Compound 4, 1-(1,1-dioxo-tetrahydro-2H-thiopyran-4-yl)-3-(4-(trifluoromethyl)phenyl)urea] the “% Inh (percent inhibition)” value [1] was 92% and the melting point was 196 to 198 °C.
